# Reference: patent US20080188473A1, “Indoles Useful in the Treatment of Inflammation” (priority 2004, published 2008)
# Target: T1, human mPGES-1 (Homo sapiens, UniProt O14684)
# T1 construct: made in house; host or cells: E. coli (membrane fraction)
# T1 sequence (O14684 1-152): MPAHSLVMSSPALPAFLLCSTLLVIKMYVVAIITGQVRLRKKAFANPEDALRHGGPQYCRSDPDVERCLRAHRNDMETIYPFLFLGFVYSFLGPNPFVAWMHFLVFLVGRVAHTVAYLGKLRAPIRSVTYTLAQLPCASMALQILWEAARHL
# Test: mPGES-1 inhibition assay (conversion of PGH2 to PGE2, HPLC analysis)
# Type: biochemical
# Conditions: human mPGES-1 expressed in E. coli, membrane fraction; 25 min preincubation with inhibitor, PGH2 substrate 60 seconds, room temperature; read-out: concentration at which 50% inhibition of mPGES-1 was observed
# Protocol: In the assay human mPGES-1 catalyses the reaction where the substrate PGH2 is converted to PGE2. mPGES-1 is expressed in E. coli and the membrane fraction is dissolved in 20 mM NaPi-buffer pH 8.0 and stored at −80° C. […] The stop solution consists of H2O/MeCN (7/3), containing FeCl2 (25 mM) and HCl (0.15 M). The assay is performed at room temperature in 96-well plates.
# The following is added chronologically to each well: • 1. 100 μL human in PGES-1 in KPi-buffer with glutathione. Total protein concentration: 0.02 mg/mL. • 2. 1 μL inhibitor in DMSO. Incubation of the plate at room temperature for 25 minutes. • 3. 4 μL of a 0.25 mM PGH2 solution. Incubation of the plate at room temperature for 60 seconds. • 4. 100 μL stop solution. • 180 μL per sample is analyzed with HPLC.
row,SMILES,IC50
1,"CC(=O)Nc1c(C(=O)O)n(-c2ccc(OC(C)C)cc2)c2ccc(-c3ccc(OC(C)C)cc3)cc12 [Example 1, 3-Acetamido-1,5-bis(4-isopropoxyphenyl)-indole-2-carboxylic acid]",3100 nM
2,"CC(=O)N(C)c1c(C(=O)O)n(-c2ccc(OC(C)C)cc2)c2ccc(-c3ccc(C(F)(F)F)cn3)cc12 [Example 12, 3-(Acetylmethylamino)-1-(4-isopropoxyphenyl)-5-(5-trifluoromethyl-pyridin-2-yl)-1H-indole-2-carboxylic acid]",5300 nM
3,"CC(C)Oc1ccc(-c2ccc3c(c2)c(NS(C)(=O)=O)c(C(=O)O)n3-c2ccc(OC(C)C)cc2)cc1 [Example 3, 1,5-Bis(4-isopropoxyphenyl)-3-(methylsulfonamido)indole-2-carboxylic acid]",1700 nM

# The next compounds have a lower IC50 than those just listed; values first:
row,IC50,SMILES
1,730 nM,"CC(C)Oc1ccc(-n2c(C(=O)O)c(N3CCOCC3)c3cc(-c4ccc(C(F)(F)F)cc4)ccc32)cc1 [Example 7, 1-(4-Isopropoxyphenyl)-3-(4-morpholino)-5-(4-(trifluoromethyl)phenyl)-indole-2-carboxylic acid]"
2,190 nM,"CC(C)Oc1ccc(-n2c(C(=O)O)c(NC(=O)c3cccnc3)c3cc(-c4ccc(C(F)(F)F)cn4)ccc32)cc1 [Example 13, 1-(4-Isopropoxyphenyl)-3-nicotinamide-5-(5-trifluoromethylpyridin-2-yl)-1H-indole-2-carboxylic acid]"
